Test results reported in US8394788B2, “Phenylsulfoxyoxazole compound inhibitors of urea transporters” (The Regents of the University of California, priority 2006, dated 2013).

Tests used:
rat UT-A1 = target: T1, rat UT-A1 (Rattus norvegicus, UniProt Q62668); assay: UT-A1-facilitated urea flux across MDCK-UT-A1 cell layers; format: cell-based; conditions: forskolin 10 μM; phloretin 0.7 mM
T1 sequence (Q62668 1-929): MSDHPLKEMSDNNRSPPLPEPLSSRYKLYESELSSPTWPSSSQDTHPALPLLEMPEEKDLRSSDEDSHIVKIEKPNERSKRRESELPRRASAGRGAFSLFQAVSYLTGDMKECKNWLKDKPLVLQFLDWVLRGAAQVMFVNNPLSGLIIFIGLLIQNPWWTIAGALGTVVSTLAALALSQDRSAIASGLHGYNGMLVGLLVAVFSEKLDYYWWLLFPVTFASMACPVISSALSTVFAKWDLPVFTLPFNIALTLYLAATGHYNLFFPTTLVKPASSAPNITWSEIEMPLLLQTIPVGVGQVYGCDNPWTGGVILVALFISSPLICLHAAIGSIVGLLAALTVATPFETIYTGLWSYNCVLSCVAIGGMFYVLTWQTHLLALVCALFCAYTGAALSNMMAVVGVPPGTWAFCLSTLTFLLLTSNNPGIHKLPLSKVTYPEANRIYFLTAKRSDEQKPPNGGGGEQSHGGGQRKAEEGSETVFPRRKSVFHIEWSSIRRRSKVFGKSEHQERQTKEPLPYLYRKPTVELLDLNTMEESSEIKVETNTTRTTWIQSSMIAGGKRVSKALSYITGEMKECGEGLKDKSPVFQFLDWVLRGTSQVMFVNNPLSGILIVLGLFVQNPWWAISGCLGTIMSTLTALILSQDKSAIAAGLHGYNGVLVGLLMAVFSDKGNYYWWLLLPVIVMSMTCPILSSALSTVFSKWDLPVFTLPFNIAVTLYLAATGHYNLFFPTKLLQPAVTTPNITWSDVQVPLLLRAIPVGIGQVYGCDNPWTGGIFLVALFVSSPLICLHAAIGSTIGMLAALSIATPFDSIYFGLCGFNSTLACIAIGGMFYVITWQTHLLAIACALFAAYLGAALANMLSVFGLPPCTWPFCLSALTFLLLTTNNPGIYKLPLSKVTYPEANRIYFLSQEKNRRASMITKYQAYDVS
Procedure: Concentration-inhibition studies were performed to study the effect of the active mouse UT-B inhibitors on urea transport by UT-A. The amino acid sequences of UT-B and UT-A urea transporter isoforms share significant similarity. The cells used in these studies were MDCK cells that expressed rat UT-A1. MDCK-UT-A1-expressing cells were grown on collagen-coated porous filters until they were electrically tight, at which point 15 mM urea was introduced into buffer bathing the basolateral cell surface. […]
UT-A1-facilitated urea flux in the basolateral-to-apical direction across unstimulated and forskolin-stimulated MDCK-UT-A1 cell layers was measured in response to a 15-mM urea gradient. […] Five μL samples of apical fluid were collected at specified times during incubation at 37° C., and urea concentration was determined using a commercial kit based on chromogenic urea complexation at 520-nm wavelength (Quantichrom™ Urea Assay Kit, BioAssay Systems, Hayward, Calif.). […] Aforsk, and Aphlor were averaged absorbance values (at 520 nm) for cultures treated with forskolin and forskolin+phloretin, respectively, and Atest were values from cultures treated with forskolin+test compound.

RBCs from wild-type mice = assay: Osmotic water permeability, RBCs from wild-type mice (stopped-flow); format: cell-based, mouse
Procedure: RBC urea and water permeabilities were assayed by stopped-flow light scattering using a Hi-Tech Sf-51 instrument (Wiltshire, UK). For measurement of urea permeability, dilutions of whole blood (human or mouse; see Example 1) in PBS (hematocrit: approximately 0.5%) were incubated with test compounds for 5 min and then subjected to a 250-mM inwardly directed gradient of urea. After an initial osmotic shrinking phase, the kinetics of increasing cell volume caused by urea influx were measured as the time-course of 90° scattered light intensity at 530 nm, with increasing cell volume resulting in reduced scattered light intensity. As a positive control, 0.7 mM phloretin was added to the RBC suspension prior to stopped-flow experiments. Measurements of water permeability were carried out similarly, with sucrose (cell-impermeant) used instead of urea to establish a 250-mM osmotic gradient. As a positive control, HgCl2 (0.3 mM) was added to the RBC suspension prior to stopped-flow measurements. Osmotic water permeability coefficients (Pf) were computed from light scattering data as described (van Hoek et al., J Biol. Chem. 267:18267-69 (1992)).
This example describes chemical knock-out of UT-B by UT-B inhibitors in RBCs and the effect on UT-B-facilitated water transport. […] Osmotic water permeability was measured by stopped-flow light scattering in RBCs from wild-type and AQP1-null mice as shown in FIG. 8A. […] AQP1-null RBCs had greater than 5-fold reduced Pf compared to wild-type RBCs.

UT = conditions: cited from earlier work

## O=C(CCc1ccc(O)cc1)c1c(O)cc(O)cc1O [phloretin, reference compound]
Rat UT-A1
  effect on UT-A1-facilitated urea transport: inhibited
RBCs from wild-type mice; 0.7 mM, wild-type mouse RBCs
  reduction in Pf: small but significant reduction
RBCs from wild-type mice; 10° C., 250-mM sucrose gradient
  effect on water transport in RBCs from wild-type mice: little effect
UT
  concentration exhibiting activity as UT inhibitor: > 0.5 mM
